The text below walks through data of patent publication EP0089143A1, “Diagnosis of kidney function” (AMERSHAM INTERNATIONAL plc, priority 1982, dated 1983).

Data set [1] in a line: Biodistribution and renal clearance after injection into rats (bladder activity over time, dissection at 2 hr). Conditions: for % in bladder of that at 2 hrs.: group value (4-8 animals). Format: in vivo. The method, then:
Solutions of complexes ^*1 and ^*2 from Example 1 were injected into rats and the biodistribution pattern noted. The results of these experiments in rats are summarised in Table 1 below, comparing the data on ^*1 and ^*2 with earlier data on TDG-Tc-99m, Hippuran -1-131 and DTPA-Tc-99m under identical conditions. In all cases, data from animal experiments was used only when the renal performance appeared "normal", i.e. no unilateral or bilateral renal retention. Data was also rejected in cases of significant retention of activity at the injection site.
The solution was filtered through a 0.22 micron membrane filter prior to administration to rats.
The solution was filtered through a 0.22 micron membrane filter prior to adminstration to rats.
A sealed nitrogen filled vial, containing the freeze dried formulation of 20mg TDG, 0.15 mg SnF2, 1 mg NaF and 0.5 mg sodium nitrate was treated with 2 ml of eluate from a technetium generator (6mCi/ml). The vial was allowed to stand at ambient temperature for 10 minutes, then heated in a boiling water bath for 15 minutes.

For data set [2] the following is noted: removal from the blood in a single pass through the kidney; cited from earlier work.
Where [3] appears, read: dissection at 2 hr, group value.

For the compound `O=C(O)CNC(=O)c1ccccc1[131I]` [Hippuran-I-131, sodium iodo- hippurate, reference compound], the hepatobiliary excretion entry in data set [1] is given as “some hepatobiliary excretion”. The “Dissection at 2 hr; % of injected dose: Bladder” value in data set [1] (setting [3]) is given as 93.0 % of injected dose. Also, the “Dissection at 2 hr; % of injected dose: Kidneys” value in data set [1] (setting [3]) is 0.2 % of injected dose. In data set [1] (setting [3]), the “Dissection at 2 hr; % of injected dose: Liver” value was 0.2 % of injected dose. The “% in bladder of that at 2 hrs.” value in data set [1] (time 5 min) is on record as 33.4%; in data set [1] (time 10 min), 53.8%; in data set [1] (time 15 min) it was 63.9%; in data set [1] (time 20 min) it was 72.4%; in data set [1] (time 25 min), 80.5%; in data set [1] (time 30 min) it was 85.0%. For the same compound, the “% in bladder of that at 2 hrs.” value in data set [1] (time 60 min) was 93.0%. For the same compound, in data set [2], the “removed in a single pass” value is “About 80%”.
